A value given as a limit tells only on which side of the number the result lay.

T1 sequence (P41279 30-398): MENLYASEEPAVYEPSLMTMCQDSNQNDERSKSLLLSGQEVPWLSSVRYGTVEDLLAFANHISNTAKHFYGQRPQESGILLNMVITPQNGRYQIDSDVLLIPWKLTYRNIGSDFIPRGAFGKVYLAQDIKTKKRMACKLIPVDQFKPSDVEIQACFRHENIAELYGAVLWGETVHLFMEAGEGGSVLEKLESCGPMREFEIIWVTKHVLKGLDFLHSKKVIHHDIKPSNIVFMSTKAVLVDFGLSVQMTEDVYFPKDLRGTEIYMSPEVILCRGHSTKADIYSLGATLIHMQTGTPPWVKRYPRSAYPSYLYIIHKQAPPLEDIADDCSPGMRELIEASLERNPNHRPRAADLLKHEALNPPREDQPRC

The assay addresses T1, human Cot/Tpl2 kinase (Homo sapiens, UniProt P41279).
T1 construct: human Cot/Tpl2 kinase construct encoding residues 30-398; 6His (N); made in house; host or cells: Sf9 insect cells, baculovirus system (BD Biosciences)
As to the kind of experiment: Tpl2/Cot kinase assay: GST-MEK1 phosphorylation detected by ELISA (DELFIA Eu). The format is biochemical. Conditions: Table 2; Tpl2/Cot kinase, GST-MEK1 substrate, 50 uM ATP. In short, it runs like this: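 Substrate phosphorylation (GST-MEK1 Ser217/221) quantified by DELFIA europium ELISA, yielding IC50 values. Reaction: 1 h at 30° C, pH 7.2 MOPS buffer, 50 uM ATP, 35 nM GST-MEK1, 0.4 nM monomeric His-Tpl2 purified from Sf9 cells, compounds at 1% final DMSO; stopped with EDTA.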
In general terms: ELISA stands for enzyme-linked immunosorbent assay.
Regarding `N#Cc1cnc2ccc(NCc3ccc(=O)n(CCN4CCOCC4)c3)cc2c1Nc1ccc(F)c(F)c1` [Example 345], the concentration for half-maximal inhibition (IC50) – broadly, the point on the concentration scale where inhibition reaches its midpoint – came out at 1700 nM. `N#Cc1cnc2ccc(NCc3ccc4c(c3)OCO4)cc2c1Nc1cccc(Cl)c1` [Example 346] yielded an IC50 of 600 nM. `CN(C)CCCOc1ccc(CNc2ccc3ncc(C#N)c(Nc4cccc(Cl)c4)c3c2)cc1` [Example 347] gave an IC50 of 600 nM. In turn, `N#Cc1cnc2ccc(NCc3cccnc3)cc2c1Nc1cccc(Cl)c1` [Example 348] registered an IC50 of 90 nM. `CS(=O)(=O)c1ccc(CNc2ccc3ncc(C#N)c(Nc4cccc(Cl)c4)c3c2)cc1` [Example 349] registered an IC50 of 370 nM. For `N#Cc1cnc2ccc(NCCN3CCOCC3)cc2c1Nc1cccc(Cl)c1` [Example 350], the IC50 stood at 690 nM. `N#Cc1cnc2ccc(NCCN3CCOCC3)cc2c1Nc1cccc(F)c1` [Example 351] displayed an IC50 of 1900 nM. Regarding `CC(C)c1cccc(Nc2c(C#N)cnc3ccc(NCCN4CCOCC4)cc23)c1` [Example 352], the IC50 was > 10000 nM.

Turning to `N#Cc1cnc2ccc(NCCN3CCOCC3)cc2c1Nc1ccc(Sc2ccccc2)c(Cl)c1` [Example 353], 470 nM corresponded to half-maximal inhibition (IC50).

With `CN(C)c1cccc(Nc2c(C#N)cnc3ccc(NCCN4CCOCC4)cc23)c1` [Example 354], the IC50 is > 10000 nM.

Turning to `N#Cc1cnc2ccc(NCCN3CCOCC3)cc2c1Nc1ccc(Br)cc1` [Example 355], the IC50 was > 10000 nM.

For the molecule `N#Cc1cnc2ccc(NCCN3CCOCC3)cc2c1Nc1ccc2[nH]ccc2c1` [Example 356], the IC50 was > 10000 nM. Molecule `C#Cc1cccc(Nc2c(C#N)cnc3ccc(NCCN4CCOCC4)cc23)c1` [Example 357] registered an IC50 of 1300 nM. For the molecule `N#Cc1cnc2ccc(NCCN3CCOCC3)cc2c1Sc1ccc(F)c(Cl)c1` [Example 358], the IC50 is > 40000 nM. For `CN(C)C(=O)c1cc(N)cc2c(Nc3cccc(Cl)c3)c(C#N)cnc12` [Example 359], it took 8400 nM to reach half-maximal inhibition (IC50). Consider `N#Cc1cnc2ccc(NCc3ccccn3)cc2c1NC1CCCCC1` [Example 360], for which the IC50 came to 210 nM. For the molecule `N#Cc1cnc2ccc(NCc3ccccn3)cc2c1Nc1ccccc1` [Example 361], the IC50 is 250 nM. As for `N#Cc1cnc2c(Br)cc([N+](=O)[O-])cc2c1Nc1cccc(Cl)c1` [Example 362], the IC50 is > 10000 nM. Consider `N#Cc1cnc2ccc(N)cc2c1NC1CCN(Cc2ccccc2)CC1` [Example 363], for which the IC50 is > 40000 nM. Regarding `CN1CCC(Nc2ccc3ncc(C#N)c(Nc4ccc(F)c(Cl)c4)c3c2)CC1` [Example 364], the IC50 was > 10000 nM.

`N#Cc1cnc2c(Br)cc(N)cc2c1Nc1cccc(Cl)c1` [Example 365] showed an IC50 of 390 nM. As to `CC(C)N1CCC(Nc2ccc3ncc(C#N)c(Nc4ccc(F)c(Cl)c4)c3c2)CC1` [Example 366], the IC50 is 25500 nM. In the case of `N#Cc1cnc2ccc(NCCN3CCOCC3)cc2c1NC1CCN(Cc2ccccc2)CC1` [Example 367], the IC50 is > 40000 nM. Molecule `CCc1nc(C)c(CNc2ccc3ncc(C#N)c(Nc4ccc(F)c(Cl)c4)c3c2)[nH]1` [Example 369] yielded an IC50 of 640 nM.

`Cc1c(CNc2ccc3ncc(C#N)c(Nc4ccc(F)c(Cl)c4)c3c2)ncn1C` [Example 370] yielded an IC50 of 3.2 nM. With `COCCOc1ccc(CNc2ccc3ncc(C#N)c(Nc4ccc(F)c(Cl)c4)c3c2)cc1Br` [Example 371], the IC50 is 380 nM. The value for `N#Cc1cnc2c(Br)cc(NCCN3CCOCC3)cc2c1Nc1cccc(Cl)c1` [Example 372] was 420 nM; that for `Cc1c(CNc2ccc3ncc(C#N)c(Nc4ccc(F)c(Cl)c4)c3c2)ncn1CCN1CCOCC1` [Example 373] was 14 nM. Consider `N#Cc1cnc2c(Br)cc(NCc3cccnc3)cc2c1Nc1cccc(Cl)c1` [Example 374], for which the IC50 is 36 nM. The value for `CN(C)C(=O)c1cc(NCc2cccnc2)cc2c(Nc3cccc(Cl)c3)c(C#N)cnc12` [Example 376] was 400 nM. `CCN1CCC(Nc2ccc3ncc(C#N)c(Nc4ccc(F)c(Cl)c4)c3c2)C(C)C1` (stereo not drawn) [Example 377]: the IC50 is > 40000 nM. Under `N#Cc1cnc2ccc(NC3CCN(Cc4ccccc4)CC3)cc2c1Nc1ccc(F)c(Cl)c1` [Example 378] stands 1700 nM. `CC(C)(C)OC(=O)N1CCC(Nc2ccc3ncc(C#N)c(Nc4ccc(F)c(Cl)c4)c3c2)CC1` [Example 379]: the IC50 was > 40000 nM. `COc1cc(NCc2cccnc2)cc2c(Nc3ccc(F)c(Cl)c3)c(C#N)cnc12` [Example 380] displayed an IC50 of 1100 nM. Turning to `CC(C)(C)OC(=O)COc1ccc(CNc2ccc3ncc(C#N)c(Nc4ccc(F)c(Cl)c4)c3c2)cc1Br` [Example 381], the IC50 was > 40000 nM. In turn, `N#Cc1cnc2ccc(NCc3cc[nH]n3)cc2c1Nc1ccc(F)c(Cl)c1` [Example 382] yielded an IC50 of 74 nM. Regarding `COc1cc(NCCN2CCOCC2)cc2c(Nc3ccc(F)c(Cl)c3)c(C#N)cnc12` [Example 383], inhibition was half-maximal at 5200 nM (IC50).

For `N#Cc1cnc2ccc(NCc3ccc[n+]([O-])c3)cc2c1Nc1ccc(F)c(Cl)c1` [Example 384], the IC50 was determined as 130 nM. On to `Cc1cc(CNc2ccc3ncc(C#N)c(Nc4ccc(F)c(Cl)c4)c3c2)n[nH]1` [Example 385], for which the 50% inhibitory concentration (IC50) turned out to be 110 nM. As to `COc1cc(NCc2cccnc2)cc2c(Nc3ccc(C)c(O)c3)c(C#N)cnc12` [Example 386], the concentration for half-maximal inhibition (IC50) is > 40000 nM. For `CN(C)Cc1cc(NCCN2CCOCC2)cc2c(Nc3cccc(Br)c3)c(C#N)cnc12` [Example 387], the IC50 is > 40000 nM.

Regarding `Cc1ncn(C)c1CNc1ccc2ncc(C#N)c(Nc3ccc(F)c(Cl)c3)c2c1` [Example 388], the IC50 turned out to be 200 nM. Under `Cn1cc(Cl)c(CNc2ccc3ncc(C#N)c(Nc4ccc(F)c(Cl)c4)c3c2)n1` [Example 389] stands > 40000 nM. For `N#Cc1cnc2ccc(N)cc2c1Nc1ccc(Cc2ccccc2)cc1` [Example 390], the IC50 came to 43 nM. `N#Cc1cnc2ccc(NCCN3CCOCC3)cc2c1Nc1ccc(Cc2ccccc2)cc1` [Example 391] yielded an IC50 of 26 nM. In the case of `Cc1cc2ncc(C#N)c(Nc3ccc(F)c(Cl)c3)c2cc1N` [Example 392], the IC50 was > 40000 nM. In the case of `N#Cc1cnc2c(Br)cc(N)cc2c1Nc1ccc(F)c(Cl)c1` [Example 393], the IC50 turned out to be 520 nM. Molecule `N#Cc1cnc2c(C(F)(F)F)cc(N)cc2c1Nc1ccc(F)c(Cl)c1` [Example 394] registered an IC50 of 5800 nM.

Consider `CN(C)C(=O)c1cc([N+](=O)[O-])cc2c(Nc3ccc(F)c(Cl)c3)c(C#N)cnc12` [Example 395], for which the IC50 was > 40000 nM.

In turn, `CN(C)C(=O)c1cc(N)cc2c(Nc3ccc(F)c(Cl)c3)c(C#N)cnc12` [Example 396] returned an IC50 of 6000 nM. The value for `COC(=O)c1cccc(CNc2ccc3ncc(C#N)c(Nc4ccc(F)c(Cl)c4)c3c2)c1` [Example 397] was 320 nM. In the case of `N#Cc1cnc2ccc(NCc3cccc(C(=O)O)c3)cc2c1Nc1ccc(F)c(Cl)c1` [Example 398], the IC50 stood at 180 nM.

For `N#Cc1cnc2ccc(NCc3cccc(C(N)=O)c3)cc2c1Nc1ccc(F)c(Cl)c1` [Example 399], the IC50 worked out at 460 nM. Regarding `N#Cc1cnc2ccc(NCc3cnc[nH]3)cc2c1NC1CCCCCC1` [Example 400], the IC50 came out at 490 nM. `CC(C)(C)Nc1c(C#N)cnc2ccc(NCc3cnc[nH]3)cc12` [Example 401]: 3100 nM corresponded to half-maximal inhibition (IC50). Take `N#Cc1cnc2ccc(N)cc2c1NC1CCCC1` [Example 402]: the IC50 is > 40000 nM.

On to `CC(C)(C)Nc1c(C#N)cnc2ccc(NCc3cccc(C#N)c3)cc12` [Example 403], for which the IC50 is 11500 nM. For the molecule `CC(C)(C)Nc1c(C#N)cnc2ccc(NCc3ccn[nH]3)cc12` [Example 405], the IC50 was > 40000 nM.

`CC(C)(C)Nc1c(C#N)cnc2ccc(NCc3cccc[n+]3[O-])cc12` [Example 406]: the IC50 came out at 5400 nM. The molecule `Cn1ccnc1CNc1ccc2ncc(C#N)c(NC(C)(C)C)c2c1` [Example 407] yielded a concentration for half-maximal inhibition (IC50) of 5100 nM. Consider `CC(C)(C)Nc1c(C#N)cnc2ccc(NCc3ccc(S(N)(=O)=O)cc3)cc12` [Example 408], for which it took 21900 nM to reach half-maximal inhibition (IC50).

For the molecule `N#Cc1cnc2c(Cl)cc(N)cc2c1Nc1ccc(F)c(Cl)c1` [Example 409], inhibition was half-maximal at 920 nM (IC50).

In turn, `N#Cc1cnc2ccc(NCc3cccc[n+]3[O-])cc2c1NC1CCCC1` [Example 410] registered an IC50 of 1300 nM. In turn, `N#Cc1cnc2ccc(NCc3ccc(S(N)(=O)=O)cc3)cc2c1NC1CCCC1` [Example 411] gave an IC50 of 7300 nM.

With `N#Cc1cnc2ccc(NCc3ccn[nH]3)cc2c1NC1CCCC1` [Example 413], the IC50 was determined as 1600 nM.

`CS(=O)(=O)c1cccc(CNc2ccc3ncc(C#N)c(NC4CCCC4)c3c2)c1` [Example 414] yielded an IC50 of 2900 nM. `N#Cc1cnc2ccc(NCc3ccccc3)cc2c1NC1CCCC1` [Example 415]: inhibition was half-maximal at 21300 nM (IC50). `N#Cc1ccccc1CNc1ccc2ncc(C#N)c(NC3CCCC3)c2c1` [Example 416] registered an IC50 of 1700 nM. Take `N#Cc1cnc2ccc(NCc3cnc[nH]3)cc2c1NC1CCCC1` [Example 417]: 300 nM corresponded to half-maximal inhibition (IC50). The value for `N#Cc1cnc2ccc(NCc3cccnc3)cc2c1NC1CCCC1` [Example 418] was 2600 nM; that for `N#Cc1cnc2ccc(NCCN3CCOCC3)cc2c1NC1CCCC1` [Example 419] was 19700 nM; that for `N#Cc1cccc(CNc2ccc3ncc(C#N)c(NC4CCCC4)c3c2)c1` [Example 420] was 2200 nM. `N#Cc1cnc2c(O)cc(N)cc2c1Nc1ccc(F)c(Cl)c1` [Example 421] came in with a half-maximal inhibitory concentration (IC50) of 10600 nM.

As to `N#Cc1c(Nc2ccc(F)c(Cl)c2)c2cc(NCc3cccc[n+]3[O-])ccc2[nH]c1=O` [Example 422], the IC50 was > 40000 nM.

For the molecule `N#Cc1cnc2c(Br)cc(NCc3ccc(OC(F)(F)C(F)F)cc3)cc2c1Nc1ccc(F)c(Cl)c1` [Example 424], the half-inhibitory concentration (IC50) is > 40000 nM.

The record behind these values is patent US20060264460A1 (Wyeth, priority 2005, published 2006).
